Assay results as given in patent US20230322717A1, “SOLID FORM OF PYRAZINE SUBSTITUTED NICOTINAMIDE, AND PREPARATION AND USE THEREOF” (Shenzhen TargetRx, Inc., priority 2020, published 2023).
Values after ≈ are worked out from the molar mass of the structure shown. One block for each molecule: values may come before it.

Columns and labels:
Format in all cases: physicochemical
[1] = Stability study of the crystal form I of compound A and the crystal form I of compound A p-toluenesulfonate (HPLC, XRPD)
Method: A certain amount of samples of the crystal form I of compound A and the crystal form I of compound A p-toluenesulfonate (Batch No.: PTSA-A1) were placed in a stability test chamber, and kept at 40° C./75%RH and 60° C. for 7 days, respectively. The samples were tested by HPLC and XRPD at various time points.

[2] = Solubility study in SGF, FaSSIF and FeSSIF (HPLC of filtrate, XRPD of solid); conditions: for Crystal form: XRPD of solid
Method: The solubilities of the crystal form I of compound A and the crystal form I of compound A p-toluenesulfonate in SGF (simulated gastric fluid), FaSSIF (fasted state simulated intestinal fluid) and FeSSIF (fed state simulated intestinal fluid) were studied.
The solubilities of samples in SGF, FaSSIF and FeSSIF at 37° C. for 24 hours were determined. 40 mg of the sample was placed in a sample bottle, and 1.5 mL of solvent was added. The mixture was mixed well, and shaken on a shaker at 200 rpm for 24 hours. The suspension was filtered at 0.5, 2 and 24 hours. The filtrate was analyzed by HPLC, and the solid was tested by XRPD.

[3] = Dynamic moisture adsorption and desorption analysis (DVS); conditions: for crystal form after DVS test (XRPD): before and after DVS test; for hygroscopicity (DVS): moisture range 0% to 90%
Method: The instrument model used for dynamic moisture adsorption and desorption analysis was IGA Sorp (Hidentity Isochema). The samples were measured in a gradient mode with a moisture range of 0% to 90%, wherein the humidity increment of each gradient was 10%.

[4] = Solubility study of the starting material (the crystal form I of compound A) in different solvents
Method: About 2 mg of the starting material was weighed and added into a sample bottle, and different solvents were added respectively, until the starting material was dissolved.

[5] = Stability study of the crystal form VI of compound A (high temperature, high humidity, light)

crystal form stability (XRPD) ([1]; 7 days at 40° C./75% RH and 60° C.): remained unchanged | crystal form of the undissolved solid (XRPD) ([2]; FaSSIF and FeSSIF for 0.5 hours): changed | crystal form of the undissolved solid (XRPD) ([2]; SGF for 24 hours): changed | dependence of solubility on pH ([2]; SGF, FaSSIF, FeSSIF, 37° C.): affected by pH value | solubility in a solution with a higher pH value ([2]; after 2 hours): higher solubility | water absorption ([3]; 0-80%RH): about 0.39% | water absorption ([3]; 0-90%RH): about 0.61% | crystal form after DVS test (XRPD) [3]: not changed | hygroscopicity (DVS) [3]: slightly hygroscopic
SMILES: Cc1ccc(S(=O)(=O)O)cc1.O=C(Nc1ccc(OC(F)(F)Cl)cc1)c1cnc(N2CC[C@@H](F)C2)c(-c2cnccn2)c1 [(R)-N-(4-(chlorodifluoromethoxy)phenyl)-6-(3-fluoropyrrolidin-1-yl)-5-(pyrazin-2-yl)nicotinamide p-toluenesulfonate]
solubility compared with the other form ([2]; FaSSIF and FeSSIF vehicles, 24 hours, 37° C.): higher solubility than that of the free base

Purity ([1]; 40° C./75% RH, Day 0, HPLC): 96.1% | Purity ([1]; 40° C./75% RH, Day 3, HPLC): 97.1% | Crystal form ([1]; 40° C./75% RH, Day 3, XRPD): Initial crystal form | Purity ([1]; 40° C./75% RH, Day 7, HPLC): 97.1% | Crystal form ([1]; 40° C./75% RH, Day 7, XRPD): Initial crystal form | Purity ([1]; 60° C., Day 0, HPLC): 96.1% | Purity ([1]; 60° C., Day 3, HPLC): 96.7% | Crystal form ([1]; 60° C., Day 3, XRPD): Initial crystal form | Purity ([1]; 60° C., Day 7, HPLC): 97.1% | Crystal form ([1]; 60° C., Day 7, XRPD): Initial crystal form | Solubility ([2]; FaSSIF, 37° C., 0.5 h): 4.2 µg/mL (≈ 9.05 µM) | pH ([2]; FaSSIF, 37° C., 0.5 h): 6.62 | Crystal form ([2]; FaSSIF, 37° C., 0.5 h): Initial crystal form | Solubility ([2]; FaSSIF, 37° C., 2 h): 4.8 µg/mL (≈ 10.3 µM) | pH ([2]; FaSSIF, 37° C., 2 h): 6.63 | Crystal form ([2]; FaSSIF, 37° C., 2 h): Changed | Solubility ([2]; FaSSIF, 37° C., 24 h): 4.3 µg/mL (≈ 9.27 µM) | pH ([2]; FaSSIF, 37° C., 24 h): 6.63 | Crystal form ([2]; FaSSIF, 37° C., 24 h): Changed | Solubility ([2]; FeSSIF, 37° C., 0.5 h): 220 µg/mL (≈ 474 µM) | pH ([2]; FeSSIF, 37° C., 0.5 h): 5.04 | Crystal form ([2]; FeSSIF, 37° C., 0.5 h): Initial crystal form | Solubility ([2]; FeSSIF, 37° C., 2 h): 180 µg/mL (≈ 388 µM) | pH ([2]; FeSSIF, 37° C., 2 h): 5.05 | Crystal form ([2]; FeSSIF, 37° C., 2 h): Changed | Solubility ([2]; FeSSIF, 37° C., 24 h): 57 µg/mL (≈ 123 µM) | pH ([2]; FeSSIF, 37° C., 24 h): 5.02 | Crystal form ([2]; FeSSIF, 37° C., 24 h): Changed | Solubility ([2]; SGF, 37° C., 0.5 h): 120 µg/mL (≈ 259 µM) | pH ([2]; SGF, 37° C., 0.5 h): 1.24 | Crystal form ([2]; SGF, 37° C., 0.5 h): Initial Crystal form | Solubility ([2]; SGF, 37° C., 2 h): 63 µg/mL (≈ 136 µM) | pH ([2]; SGF, 37° C., 2 h): 1.24 | Crystal form ([2]; SGF, 37° C., 2 h): Changed | Solubility ([2]; SGF, 37° C., 24 h): 46 µg/mL (≈ 99.2 µM) | pH ([2]; SGF, 37° C., 24 h): 1.23 | Crystal form ([2]; SGF, 37° C., 24 h): Changed
SMILES: O=C(Nc1ccc(OC(F)(F)Cl)cc1)c1cnc(N2CC[C@@H](F)C2)c(-c2cnccn2)c1 [The crystal form I of compound A]

water absorption ([3]; 0-80%RH): about 3.6% | water absorption ([3]; 0-90%RH): about 40.3% | crystal form after DVS test (XRPD) [3]: not changed | hygroscopicity (DVS) [3]: hygroscopic
SMILES: CS(=O)(=O)O.O=C(Nc1ccc(OC(F)(F)Cl)cc1)c1cnc(N2CC[C@@H](F)C2)c(-c2cnccn2)c1 [crystal form I of compound A mesylate, (R)-N-(4-(chlorodifluoromethoxy)phenyl)-6-(3-fluoropyrrolidin-1-yl)-5-(pyrazin-2-yl)nicotinamide mesylate]

Solubility ([4]; solvent: 2-Butanone): ~73670 µg/mL (≈ 159000 µM) | Solubility ([4]; solvent: Acetone): ~77000 µg/mL (≈ 166000 µM) | Solubility ([4]; solvent: Acetonitrile): ~53250 µg/mL (≈ 115000 µM) | Solubility ([4]; solvent: Ethanol): ~1310 µg/mL (≈ 2820 µM) | Solubility ([4]; solvent: Ethyl Acetate): ~49250 µg/mL (≈ 106000 µM) | Solubility ([4]; solvent: Isobutanol): ~730 µg/mL (≈ 1570 µM) | Solubility ([4]; solvent: Isopropyl Acetate): ~22100 µg/mL (≈ 47600 µM) | Solubility ([4]; solvent: Isopropyl Alcohol): ~920 µg/mL (≈ 1980 µM) | Solubility ([4]; solvent: Methanol): ~11830 µg/mL (≈ 25500 µM) | Solubility ([4]; solvent: Methyl Tert-Butyl Ether): ~2800 µg/mL (≈ 6040 µM) | Solubility ([4]; solvent: Tetrahydrofuran): ~121000 µg/mL (≈ 261000 µM) | Solubility ([4]; solvent: Toluene): ~1230 µg/mL (≈ 2650 µM) | Solubility (mg/mL) ([4]; solvent: Water): <<0.55 mg/mL
SMILES: O=C(Nc1ccc(OC(F)(F)Cl)cc1)c1cnc(N2CC[C@@H](F)C2)c(-c2cnccn2)c1 [the crystal form I of compound A]

Appearance ([5]; 0 day): Off-white powder | Content ([5]; 0 day): 99.40% | Crystal form ([5]; 0 day): The crystal form VI | Impurity content ([5]; 0 day): 0.87% | Appearance ([5]; 25° C./92.5%RH, 10 days): Off-white powder | Content ([5]; 25° C./92.5%RH, 10 days): 98.40% | Crystal form ([5]; 25° C./92.5%RH, 10 days): The crystal form VI | Hygroscopic weight gain ([5]; 25° C./92.5%RH, 10 days): 0.34% | Impurity content ([5]; 25° C./92.5%RH, 10 days): 0.80% | Appearance ([5]; 25° C./92.5%RH, 30 days): Off-white powder | Content ([5]; 25° C./92.5%RH, 30 days): 98.80% | Crystal form ([5]; 25° C./92.5%RH, 30 days): The crystal form VI | Hygroscopic weight gain ([5]; 25° C./92.5%RH, 30 days): 2.72% | Impurity content ([5]; 25° C./92.5%RH, 30 days): 0.85% | Appearance ([5]; 40° C./75%RH, 10 days): Off-white powder | Content ([5]; 40° C./75%RH, 10 days): 98.40% | Crystal form ([5]; 40° C./75%RH, 10 days): The crystal form VI | Hygroscopic weight gain ([5]; 40° C./75%RH, 10 days): 1.26% | Impurity content ([5]; 40° C./75%RH, 10 days): 0.79% | Appearance ([5]; 40° C./75%RH, 30 days): Off-white powder | Content ([5]; 40° C./75%RH, 30 days): 101.40% | Crystal form ([5]; 40° C./75%RH, 30 days): The crystal form VI | Hygroscopic weight gain ([5]; 40° C./75%RH, 30 days): 1.26% | Impurity content ([5]; 40° C./75%RH, 30 days): 0.80% | Appearance ([5]; 60° C., 10 days): Off-white powder | Content ([5]; 60° C., 10 days): 99.90% | Crystal form ([5]; 60° C., 10 days): The crystal form VI | Impurity content ([5]; 60° C., 10 days): 0.81% | Appearance ([5]; 60° C., 30 days): Off-white powder | Content ([5]; 60° C., 30 days): 96.90% | Crystal form ([5]; 60° C., 30 days): The crystal form VI | Impurity content ([5]; 60° C., 30 days): 0.84% | Appearance ([5]; Light, 10 days): Off-white powder | Content ([5]; Light, 10 days): 99.70% | Crystal form ([5]; Light, 10 days): The crystal form VI | Impurity content ([5]; Light, 10 days): 0.85%
SMILES: O=C(Nc1ccc(OC(F)(F)Cl)cc1)c1cnc(N2CC[C@@H](F)C2)c(-c2cnccn2)c1 [the crystal form VI of compound A]
